Consider three compounds from patent US10946094B2, “Adenoassociated viral mediated persistant anti-VEGF therapy for ovarian cancer” (Cornell University, priority 2015, dated 2021).

The test system of assay [1] is A2780 ovarian cancer cells. Briefly: Survival of A2780 tumor-bearing mice pretreated with chemotherapeutic, followed by AAV vector. The note with it: for Efficacy as single agents at the doses and schedules used: survival of A2780 tumor-bearing mice. In kind it is in vivo, Balb/c nude mice. The procedure: Xenografts of human ovarian cancer cells were established by administering 5 million A2780 ovarian cancer cells intraperitoneally in 6 to 8 week old female Balb/c nude mice. Survival was analyzed in the mice which were either left untreated, treated with the chemotherapeutic topotecan in combination with an AAV vector, or treated with the chemotherapeutic paclitaxel in combination with an AAV vector. To establish the topotecan-AAVrh. 10BevMab combination treatment model, 2 weeks after injection of the A2780 ovarian cancer cells, the mice were treated with topotecan at 0.625 mg/kg body weight/day, 5 times/week for 3 weeks (see, Delord et al., Ann. Oncol., 16: 1889-1897 (2005)). […] To establish the paclitaxel-AAVrh.10BevMab combination treatment model, 1 week after injection of the A2780 ovarian cancer cells, the mice were treated with paclitaxel at 20 mg/kg body weight, once/week for 2 weeks (see, Vassileva et al., Mol Cancer Ther., 7: 630-637 (2008)).

For the next assay, the system named is recurrent ovarian cancer. To be noted: single agent, patients with recurrent ovarian cancer; cited from earlier work.

In the case of `CC[C@@]1(O)C(=O)OCc2c1cc1n(c2=O)Cc2cc3c(CN(C)C)c(O)ccc3nc2-1` [Topotecan, topotecan], in assay [1], the “Efficacy as single agents at the doses and schedules used” value is listed as “efficacious”. In addition, the Median survival in assay [1] (topotecan model: 0.625 mg/kg/day, 5 times/week for 3 weeks from week 2, vector at week 5) came out at 50 days.

For `CC(=O)O[C@H]1C(=O)[C@@]2(C)[C@H]([C@H](OC(=O)c3ccccc3)[C@]3(O)C[C@H](OC(=O)[C@H](O)[C@@H](NC(=O)c4ccccc4)c4ccccc4)C(C)=C1C3(C)C)[C@]1(OC(C)=O)CO[C@@H]1C[C@@H]2O` [paclitaxel], in assay [1] (paclitaxel model: 20 mg/kg once/week for 2 weeks from week 1, vector at week 3), the Median survival came out at 31 days. In addition, in assay [1], the “Efficacy as single agents at the doses and schedules used” value is on record as “efficacious”.

As for Bevacizumab, the Responsive rate in the assay with recurrent ovarian cancer is listed as 21%.
